In data set [1] the test system is sumoylation levels (SUMO 2/3 conjugates) in HCT-116 cells. Briefly: HCT-116 4 Hour Cell Assay (Western, SUMO 2/3 conjugates). Format: cell-based. The note with it: Homo sapiens, HCT-116, 4 h, 4 h treatment, Anti-Sumo 2-3 immunoblot, read-out: HCT-116 Western 4 h IC50 (μM) Ave. In a few lines:
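Cells treated 4 h with 11 three-fold dilutions from 25 μM; lysed in RIPA with NEM and Benzonase. Non-reducing SDS-PAGE immunoblot with anti-SUMO 2/3 mAb, IRDye fluorescent detection; conjugate signal normalized to total protein stain, IC50 from quantified bands.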

The nature of data set [2]: Plasma protein binding, equilibrium dialysis, mouse plasma. Format: in vitro ADME. The conditions noted are these: 5 hours at 37° C., read-out: PPB % bound Mouse (converted). As to the method:
(§1) The compounds of interest were evaluated for various PK parameters. Specifically CACO permeability/efflux and plasma protein binding (PPP) were determined. Stock solutions were prepared at 10 mM in DMSO for test and reference compounds. Aliquots of the stock solution were diluted to 500× of final concentration (0.5 mM) with DMSO, then further diluted upon the addition of bank PE3-buffer to 20× of final concentration (20 μM). Then test and reference compounds were prepared in plasma at 1 μM. For 0 hour incubation: 25 μL of the plasma spiked with test and reference compounds was transferred into a 96-well sample preparation plate, and then 25 μL blank PB-buffer was added. The samples were quenched by 200 μL of IS solution to prepare [Initial]0h samples. For 5 hours incubation: 100 μL of the plasma spiking with test and reference compounds was loaded on donor side, and 100 μL of blank PB-buffer were loaded on receiver side of the equilibrium dialysis device. Samples were incubated in an air-bath shaker (60 rpm) for 5 hours at 37° C. After 5 hours incubation, 25 μL of samples (from both the donor sides and receiver sides of the dialysis apparatus) was aspirated and added into new sample preparation plates, separately. 25 μL of blank PB-buffer was added to donor side samples and 25 μL of blank plasma was added to receiver side samples to balance the matrix. The samples were quenched with 200 μL of IS solution. The assay plate was shaken at the vibrator (Hangzhou Allsheng, MX100-4A) for 10 min (600 rpm) and then centrifuged at 5,594×g for 15 min (Thermo Multifuge×3R). An aliquot of the 50 μL supernatant was taken from each well and diluted by 50 μL distilled water, then analyzed by UPLC-MS/MS.

A short description of data set [3]: Plasma protein binding, equilibrium dialysis, monkey plasma. The note with it: 5 hours at 37° C., read-out: PPB % bound Monkey (converted). Format: in vitro ADME. The method, then:
as §1

Data set [4] is described as follows: Caco-2 permeability/efflux. The conditions noted are these: human, Caco-2, pH 7.4; B-A / A-B. Format: in vitro ADME. The method, then: (§2) Caco-2 cells were obtained from American Tissue Culture Collection (Rockville, MD). The cells were maintained in Modified Eagle's medium (MEM), containing 10% heat-inactivated fetal bovine serum (FBS), and 1% non-essential amino acids, in CO2 at 37° C. Cells were seeded on polycarbonate filter inserts (Millipore, CAT #PSHT 010 R5). The cells were cultured for 21-28 days prior to the permeability experiments. The Lucifer Yellow permeability was checked before and after the assay. Compounds were dissolved at 10 mM in 100% dimethyl sulfoxide (DMSO) and diluted for studies in Hanks Balanced Salt Solution (HBSS, Invitrogen, Cat #14025-092) with 25 mM HEPES, pH 7.4. Compounds were tested at 10 µM in both the apical-to-basolateral (A-B) and basolateral-to-apical (B-A) directions, incubations were conducted at 37° C. for 90 min. At the end of incubation, samples were diluted by assay buffer, and analyzed by LC-MS/MS. The concentrations of the compounds were quantified by standard curve. The first comparator example (Comp. Ex. 1) is the chloro substituted thienodihydropyridine

The subject of the next data set is Caco-2 cells. Kind of data set: Caco-2 permeability/efflux. Format: in vitro ADME. The note with it: 10 uM, 37° C., 90 min, pH 7.4. As to the method: as §2
The nature of the next data set: Solubility Evaluation. Format: physicochemical. The note with it: kinetic from dmso stock, 1 hour at RT. As to the method:
The compounds of interest were evaluated for their solubility in various biological solutions. Specifically, aliquots (8 μL) of reference and test compound stock solutions (10 mM) were added into 792 μL of buffer (PBS, pH7.4, FaSSIF, pH 6.5, or FaSSGF, pH 1.6) respectively (Final DMSO conc.: 1%). Sample tubes were shaken for 1 hour (1000 rpm) at RT. The experiment was calibrated using 300 μM spiked solution (SS) in MeOH/CAN (4:1) by adding 6 μL of 10 mM compound stock solution in 194 μL MeOH/ACN(4:1) ranging from 60 μM to 0.02 μM. The samples were centrifuged (10 min-12000 rpm) to precipitate un-dissolved particles. The supernatants were transferred to a new tube or plate. Supernatants were diluted 10 times and 100 times with 100 mM buffer then analyzed by LC-MS/MS. SGF=simulated gastric fluid, SIF=simulated intestinal fluid, PBS=phosphate buffered saline pH 7.4 Values are noted in μM.

The mark [5] stands for this setting: PBS (phosphate buffered saline), aqueous buffer, phosphate buffered saline pH 7.4, 1% DMSO, read-out: Solubilities PBS.
Where [6] appears, read: simulated intestinal fluid (FaSSIF, pH 6.5), 1% DMSO, read-out: Solubilities SIF.

Values after ≈ are worked out from the molar mass of the structure shown. Like-named read-outs stand apart in the source and are kept apart here. A value given as a limit tells only on which side of the number the result lay.

For the compound `C=CC(=O)N1Cc2sc(C#N)c(C)c2[C@H](c2cccc(F)c2-c2cn(CC)nc2C(F)(F)F)C1` [Compound 222], the IC50 in data set [1] was 0.0974 µM. Further, the fraction unbound at 5 h, 1 μM in data set [2] was 0.005; in data set [3] it was 0.009. In addition, in data set [4], the efflux ratio at 90 min, 10 μM was found to be 1. Further, the Caco-2 apparent permeability (Papp) is 3.4 10^-6 cm/s in the data set with Caco-2 cells (apical-to-basolateral) and 4.1 10^-6 cm/s in the data set on Caco-2 cells (basolateral-to-apical). The values for the solubility at 1 h in the data set “Solubility Evaluation” (setting [5]) and in “Solubility Evaluation” (setting [6]) were 41 µM (≈ 20 µg/mL) and 29 µM (≈ 14.2 µg/mL), respectively.
For `CCn1cc(-c2c(F)cccc2[C@@H]2CN(C(=O)/C=C/CN(C)C)Cc3sc(C#N)c(C)c32)c(C(F)(F)F)n1` [Example 46, (S, E)-6-(4-(dimethylamino)but-2-enoyl)-4-(2-(1-ethyl-3-(trifluoromethyl)-1 H-pyrazol-4-yl)-3-fluorophenyl)-3-methyl-4,5,6,7-tetrahydrothieno[2,3-c]pyridine-2-carbonitrile], the IC50 in data set [1] amounted to 0.0953 µM. For the same compound, the values for the fraction unbound at 5 h, 1 μM in data set [2] and in data set [3] were 0.013 and 0.047, respectively. Also, the efflux ratio at 90 min, 10 μM in data set [4] was 1. The Caco-2 apparent permeability (Papp) with Caco-2 cells (apical-to-basolateral) is 12.7 10^-6 cm/s; with Caco-2 cells (basolateral-to-apical) it was 11.6 10^-6 cm/s. Moreover, the solubility at 1 h in the data set “Solubility Evaluation” (setting [5]) is 97 µM (≈ 52.9 µg/mL); in the data set “Solubility Evaluation” (setting [6]) it was > 100 µM.
As for `CCn1cc(-c2c(F)cccc2[C@@H]2CN(C(=O)/C=C/CNC)Cc3sc(C#N)cc32)c(C(F)(F)F)n1` [Example 50], in data set [1], the concentration for half-maximal inhibition (IC50) is 0.157 µM. Moreover, the results for the fraction unbound at 5 h, 1 μM in data set [2] and in data set [3] were 0.039 and 0.064, respectively. Besides, the efflux ratio at 90 min, 10 μM in data set [4] stood at 6. The Caco-2 apparent permeability (Papp) was 4 10^-6 cm/s in the data set on Caco-2 cells (apical-to-basolateral) and 21 10^-6 cm/s in the data set on Caco-2 cells (basolateral-to-apical). For the same compound, the solubility at 1 h in “Solubility Evaluation” (setting [5]) is 30 µM (≈ 15.5 µg/mL); in “Solubility Evaluation” (setting [6]) it was 28 µM (≈ 14.5 µg/mL).

The record behind these values is patent US20240360148A1 (SUVALENT THERAPEUTICS, INC., priority 2021, published 2024).
